Laboratory results taken from publication PMC5034337 (Scientific Reports, 2016).

Columns and labels:
[1] = in vivo
[2] = French farmers with detectable DOM-1 levels; cited from earlier work
mammalian ribosomes = format: biochemical, rabbit
[3] = test system: HT-29 colon carcinoma cells
[4] = test system: primary human colon epithelial cells (HCEC-1CT)
[5] = moderately exposed UK population; cited from earlier work
[6] = in vivo; cited from earlier work

| Compound | detection in urine samples [1] | share of the total urinary DON, average [2] | concentration at which translation was completely inhibited (mammalian ribosomes) | concentration(s) with proliferative stimulus [3] | cytotoxic effect [3] | concentration from which a significant decrease of cell viability was detectable ([3]; human) | cytotoxic effect [4] | concentration from which a significant decrease of cell viability was detectable ([4]; human) | concentration(s) with proliferative stimulus (Caco-2 cells) | cytotoxic effect (Caco-2 cells) | concentration from which a significant decrease of cell viability was detectable (Caco-2 cells; human) | concentration(s) with proliferative stimulus (T24 bladder cancer cells) | cytotoxic effect (T24 bladder cancer cells) | lowest concentration at which the proliferative effect was present (T24 bladder cancer cells) | concentration from which a significant decrease of cell viability was detectable (T24 bladder cancer cells; human) | overall 24 h urinary excretion rate of total DON (sum of DON and its glucuronides), average [5] | maximum urinary concentration [6] |
| --- | --- | --- | --- | --- | --- | --- | --- | --- | --- | --- | --- | --- | --- | --- | --- | --- | --- |
| C=C1[C@@H]2O[C@@H]3C=C(C)C(=O)[C@@H](O)[C@]3(CO)[C@@]1(C)C[C@H]2O [DOM-1, deepoxy-DON] | no DOM-1 was detected in any sample | < 5% | – | – | – | – | – | – | – | – | – | – | – | – | – | – | – |
| CC1=C[C@H]2O[C@@H]3[C@H](O)C[C@](C)([C@@]2(CO)[C@H](O)C1=O)[C@]31CO1 [DON, deoxynivalenol] | – | – | 20 µM | 0.1 µM | concentration dependent cytotoxicity | 10 µM | concentration dependent cytotoxicity | 1 µM | 10 nM | concentration dependent cytotoxicity | 10 µM | 0.1 to 10 nM | concentration dependent cytotoxicity | 0.1 nM | 1 µM | 72% | 275 µg/L |
